# Test results reported in patent US20240108641A1, “COMPOSITIONS FOR ORAL ADMINISTRATION OF ZOLEDRONIC ACID OR RELATED COMPOUNDS FOR TREATING DISEASE” (ANTECIP BIOVENTURES II LLC, priority 2012, published 2024).
# Experiments:
# [1] = system: arthritis pain (mechanical hyperalgesia); experiment: rat complete Freund's adjuvant (CFA) model of arthritis pain; assay type: in vivo; conditions: oral administration; day 14 post CFA
# Experimental: The effect of orally administered zoledronic acid on arthritis pain was examined in the rat complete Freund's adjuvant (CFA) model of arthritis pain. In this model, injection of 100% complete Freund's adjuvant (CFA) in a 75 μL volume into the left hind paws is followed by a 10-14 day period to allow for the development of arthritis pain. Animals were orally administered vehicle (control), zoledronic acid 54 mg/m^2 (or 9 mg/kg), or zoledronic acid 360 mg/m^2 (or 60 mg/kg), divided in three equal daily doses on the first three days post CFA injection. Drug was dissolved in distilled water and prepared fresh daily. Animals were fasted prior to dosing.
# Arthritis pain (mechanical hyperalgesia) in the vehicle and drug-treated animals was evaluated on day 14 post CFA injection using a digital Randall-Selitto device (dRS; IITC Life Sciences, Woodland Hills, CA). Animals were placed in a restraint sling that suspended the animal, leaving the hind limbs available for testing. Paw compression threshold was measured by applying increasing pressure to the plantar surface of the hind paw with a dome-shaped tip placed between the 3rd and 4th metatarsus. Pressure was applied gradually over approximately 10 seconds. […]
# Reversal of arthritis pain in the ipsilateral (CFA-injected) paw was calculated according to the formula: […]
# [2] = phase 1 clinical trial, bioavailability and pharmacokinetics of the oral dosage form versus IV Zometa; assay type: in vivo, human
# Experimental: Dose amounts are based upon the weights of the molar equivalent amounts of the diacid form of zoledronic acid (e.g., the 50 mg oral dose contains about 71 mg of the disodium zoledronate tetrahydrate form). The dosage form had the composition shown in Table 3, and was coated with Opadry White, which as 3-5 wt % of the coated tablet. These dosage forms were free of bioavailability enhancing agents. For convenience, the dosage form described in Table 3 will be described in this Example as “the oral dosage form.”
# Each subject received 2 of the following 4 treatments: one unit of the oral dosage form for a 50 mg dose (“the 50 mg oral dose”), two units of the oral dosage form taken together for a 100 mg dose (“the 100 mg oral dose”), or three units of the oral dosage form taken together for a 150 mg dose (“the 150 mg oral dose”), or a 1 mg IV dose of zoledronic acid (Zometa®). Each treatment was separated by a wash-out period of approximately 14 days. Blood samples were collected for 72 hours post-dose to characterize zoledronic acid pharmacokinetics. Blood samples were collected pre-dose and 7 and 14-15 days post-dose to measure the effects of the oral disodium tetrahydrate form of zoledronic acid and IV zoledronic acid on biomarkers of bone resorption.
# All study medications which were orally administered were given with approximately 240 mL of water. Subjects remained upright for the first hour following study medication administration. Zoledronic acid IV infusion was at least 15 minutes in duration. All study medication was administered under fasting conditions.
# Each treatment was separated by a washout period of approximately 14 days. Blood samples were collected for 72 hours post-dose to characterize zoledronic acid pharmacokinetics. Blood samples were collected pre-dose and 7 and 14-15 days post-dose to measure the effects of the oral dosage form and IV zoledronic acid on serum CTx.
# in vivo = conditions: beagle, dog, po, 150 mg
# Experimental: Tablets were manufactured containing either pure zoledronic acid or the disodium salt of zoledronic acid (disodium zoledronate tetrahydrate). Both types of tablets contained 50 mg of zoledronic acid equivalent per tablet. Identical excipients were used in both types of tablets, with amounts adjusted to account for the difference in molecular weights between the acid and the disodium salt.
# Beagle dogs were orally administered tablets containing 150 mg zoledronic acid equivalent either in the form of disodium zoledronate (Group 1) or pure zoledronic acid (Group 2). Each animal was given three 50 mg equivalent tablets (150 mg total), which were administered together. The animal's oral cavity was wetted with water before placing the tablets on the back of the animal's tongue. Animals were fasted before and after dosing. Animals were 6 to 9 months of age and weighed 6 to 10 kg on the day of dosing. There were three dogs per group.
# Serial blood samples were collected from each animal by venipuncture of the jugular vein at various points after dosing for measurement of plasma concentrations of zoledronic acid. Blood samples were collected into chilled tubes containing K2EDTA as the anticoagulant. Samples were then centrifuged at approximately 3000 rpm at +4° C. for 10 minutes for plasma derivation. Plasma concentrations of zoledronic acid were measured using an LC/MS/MS method.
structure (smiles),measurement,setting,value
O=P(O)(O)C(O)(Cn1ccnc1)P(=O)(O)O [zoledronic acid],arthritis pain thresholds compared to vehicle,[1],significantly improved
same,Sustained Plasma Factor,[2]; 1 mg IV,4.6
same,Sustained Plasma Factor,[2]; 50 mg oral dose,13.5
same,Sustained Plasma Factor Ratio (oral/IV),[2]; 50 mg oral dose versus 1 mg IV,2.9
same,Sustained Plasma Factor,[2]; 100 mg oral dose,11.7
same,Sustained Plasma Factor Ratio (oral/IV),[2]; 100 mg oral dose versus 1 mg IV,2.5
same,Sustained Plasma Factor,[2]; 150 mg oral dose,15.1
same,Sustained Plasma Factor Ratio (oral/IV),[2]; 150 mg oral dose versus 1 mg IV,3.3
same,AUC(0-inf),in vivo,2220 ng·h/mL
